Assay results as given in patent US10080812B2, “Radioactive iodine labeled pyrido[1,2-a]benzoimidazole derivative compound” (priority 2015, dated 2018).

Key:
[1] = Metabolite analysis in blood; assay type: in vivo, ddY mouse; conditions: i.v.; for Proportion of parent compound in blood: mouse plasma, mean±SD n=3
Experimental: A 5-week-old male ddY mouse was used as a normal mouse. [^123I]BIP-3 obtained by the method shown in Example 10, which was contained in saline containing 0.1 vol % Tween 80 and 10 vol % ethanol, was administered from the tail vein (3.70 MBq, 100 μL). 2 minutes, 10 minutes, or 30 minutes after administration, the mouse was slaughtered, and blood was collected into a test tube with an inner wall coated with Heparin Sodium Injection (manufactured by Nipro Pharma Corp.). After radioactivity measurement, the blood was centrifuged at 4000×g at 4° C. for 5 minutes and separated into plasma and cell components. To the obtained plasma, a 2-fold volume of methanol was added for protein denaturation, and the mixture was centrifuged at 4000×g at 4° C. for 5 minutes. The obtained supernatant was passed through Cosmonice Filter (S) (0.45 μm, 4 mm) (Nacalai Tesque, Inc.) and analyzed by reverse phase HPLC. Analytical conditions for HPLC were the same as the conditions used in Example 9.

[2] = Metabolite analysis in brain; assay type: in vivo, ddY mouse; conditions: mouse brain, 2 min after i.v. administration
Experimental: A 5-week-old male ddY mouse was used as a normal mouse. [^123I]BIP-3 obtained by the method shown in Example 10, which was contained in saline containing 0.1 vol % Tween 80 and 10 vol % ethanol, was administered from the tail vein (3.70 MBq, […]). After 2 minutes, the mouse was slaughtered, and the brain was excised, homogenized in methanol (2.00 mL) and TBS (2.00 mL), and centrifuged at 4000×g at 4° C. for 10 minutes, followed by the collection of a supernatant. The obtained supernatant was passed through Cosmonice Filter (S) (0.45 μm, 4 mm) (Nacalai Tesque, Inc.) and analyzed by reverse phase HPLC. Analytical conditions for HPLC were the same as the conditions used in Example 9.

Question: Which “Proportion of parent compound in blood” value ([1]; 2 min after administration) does the source give for `[123I]c1ccc2c(c1)nc1ccccn12` [[^123I]BIP-3, 7-[^123I]iodobenzo[4,5]imidazo[1,2-a]pyridine] here?
Answer: 83.1 ± 7.7

Question: And the “Proportion of parent compound in blood” value ([1]; 10 min after administration)?
Answer: 23.6 ± 2.2

Question: What about the “Proportion of parent compound in blood” value ([1]; 30 min after administration) of the same molecule?
Answer: 8.4 ± 1.1

Question: What about the “metabolite formation in blood” value ([1]; mouse, HPLC of plasma) of the same molecule?
Answer: forms a highly water-soluble metabolite

Question: And the “metabolite analysis of brain homogenates (reverse phase HPLC)” value [2]?
Answer: only the signal peak of the parent compound was detected
